This passage reports IC50 results from patent US20250019387A1 (Frontier Medicines Corporation, priority 0001, published 2025).

Assay [1] has as its target KRAS G12C and cRAF (Ras-binding domain) interaction (Homo sapiens (Human), UniProt P01116, C118S/C51S/C80L/G12C). The experiment in a line: Inhibition of KRAS G12C and cRAF binding (AlphaScreen). The method in brief:
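IC50 values come from 4-parameter nonlinear regression of AlphaScreen signal (680 nm excitation, 570 nm emission). Compound plates sat 19-20 h at room temperature before RBD and donor/acceptor beads were added in Hepes pH 7.4 buffer with 150 mM NaCl, 5 mM MgCl2, 2% DMSO for 60-90 min; biotin-AviTag-GST replaced RBD to flag assay-technology interferers.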
A general note: Bead proximity is the source of the signal in Alpha formats.

For assay [2], the target named is KRAS G12C and PI3Ka (Ras-binding domain) interaction (Homo sapiens (Human), UniProt P01116, C118S/C51S/C80L/G12C). Kind of assay: Inhibition of KRAS G12C and PI3Ka binding (AlphaScreen). Particulars: GMPPNP-loaded KRAS G12C, 2 hours incubation with compound; read-out: PI3Ka RBD IC50. On the procedure:
Compounds were diluted in 100% DMSO and each compound concentration was spotted at 200 nl/well onto low volume, white 384 well plates. […] The KRAS GT2C was diluted in 25 mM Hepes, pH 7.4, 150 mM NaCl, 5 mMv MgCl2, 0.0100 TritonX-100 and 10 μM GMPPNP and added at 10 ul/well to compound-spotted plates resulting in a […] concentration of 2%. Plates were incubated for 2 hours. A mixture of RBD and the AlphaScreen streptavidin donor and nickel chelate acceptor beads diluted in 25 mMv Hepes, pH 7.4, 150 mMv NaCl, 5 mM MgCl2, 0.0100 TritonX-100 and 2% DMSO was then added at 10 ul/well and incubated for 60-90 minutes before the samples were read for emission at 570 nm after excitation of the donor beads at 680 nm. All incubations were performed at room temperature. […] Final assay conditions were 1.5 nM KRAS GT2C, 100 nM RBD, 1.25 ug/ml of AlphaScreen donor beads and 10 μg/ml AlphaLISA acceptor beads. IC50S were determined using nonlinear regression fit of [inhibitor]vs. response (4 parameters). […]

Setting [3] is: GMPPNP-loaded KRAS G12C, 19-20 hours incubation with compound, read-out: IC50 (Inhibition of KRAS G12C and cRAF Binding).

Structures are written as SMILES. Where two headings read alike, the source gives them in different places. Bounds are passed on as bounds.

Chain of KRAS G12C and cRAF (Ras-binding domain) interaction (P01116 other isoform, or with tags, fused parts or gaps G12C/C51S/C80L/C118S): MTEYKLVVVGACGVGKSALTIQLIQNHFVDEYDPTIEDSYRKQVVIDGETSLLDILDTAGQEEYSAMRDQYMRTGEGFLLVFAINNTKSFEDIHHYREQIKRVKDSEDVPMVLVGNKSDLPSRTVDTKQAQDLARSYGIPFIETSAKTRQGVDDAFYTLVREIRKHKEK
Chain of KRAS G12C and PI3Ka (Ras-binding domain) interaction (P01116 other isoform, or with tags, fused parts or gaps G12C/C51S/C80L/C118S): as above

As for `CN(c1nc(OC[C@@]23CCCN2C[C@H](F)C3)nc2c1CCN(c1cccc3cccc(Cl)c13)C2)[C@@H]1CCN(C(=O)/C=C/c2nc([C@H]3C[C@@H]3F)no2)C1` [Example 130, (E)-1-((R)-3-((7-(8-chloronaphthalen-1-yl)-2-(((2R,7aS)-2-fluorohexahydro-1H-pyrrolizin-7a-yl)methoxy)-5,6,7,8-tetrahydropyrido[3,4-d]pyrimidin-4-yl)(methyl)amino)pyrrolidin-1-yl)-3-(3-((1R,2S)-2-fluorocyclopropyl)-1,2,4-oxadiazol-5-yl)prop-2-en-1-one], the IC50 in assay [1] (setting [3]) and in assay [2] was 10 to 100 nM each time.
Turning to `CN(CC1CN(C(=O)/C=C/c2nc([C@H]3C[C@@H]3F)no2)C1)c1nc(OC[C@@]23CCCN2C[C@H](F)C3)nc2c(F)c(-c3cccc4cccc(Cl)c34)ncc12` [Example 139, (E)-1-(3-(((7-(8-chloronaphthalen-1-yl)-8-fluoro-2-(((2R,7aS)-2-fluorotetrahydro-1H-pyrrolizin-7a(5H)-yl)methoxy)pyrido[4,3-d]pyrimidin-4-yl)(methyl)amino)methyl)azetidin-1-yl)-3-(3-((1R,2S)-2-fluorocyclopropyl)-1,2,4-oxadiazol-5-yl)prop-2-en-1-one], the IC50 in assay [1] (setting [3]) and in assay [2] was 10 to 100 nM in each case.
As for `CN(c1nc(OC[C@@]23CCCN2C[C@H](F)C3)nc2c(F)c(-c3cccc4cccc(Cl)c34)ncc12)[C@@H]1CCN(C(=O)/C=C/c2nc([C@H]3C[C@@H]3F)no2)C1` [Example 140, (E)-1-((R)-3-((7-(8-chloronaphthalen-1-yl)-8-fluoro-2-(((2R,7aS)-2-fluorohexahydro-1H-pyrrolizin-7a-yl)methoxy)pyrido[4,3-d]pyrimidin-4-yl)(methyl)amino)pyrrolidin-1-yl)-3-(3-((1R,2S)-2-fluorocyclopropyl)-1,2,4-oxadiazol-5-yl)prop-2-en-1-one], the IC50 in assay [1] (setting [3]) and in assay [2] was 10 to 100 nM throughout.
Consider `CN(c1nc(OCC23CCCN2CCC3)nc2c1CCN(c1cccc3cccc(Cl)c13)C2)[C@@H]1CCN(C(=O)/C=C/c2nc(C3CC3)no2)C1` [Example 161, (R,E)-1-(3-((7-(8-chloronaphthalen-1-yl)-2-((hexahydro-1H-pyrrolizin-7a-yl)methoxy)-5,6,7,8-tetrahydropyrido[3,4-d]pyrimidin-4-yl)(methyl)amino)pyrrolidin-1-yl)-3-(3-cyclopropyl-1,2,4-oxadiazol-5-yl)prop-2-en-1-one], for which the IC50 in assay [1] (setting [3]) and in assay [2] was 10 to 100 nM throughout.
Regarding `CCc1noc(/C=C/C(=O)N2CC(CN(C)c3nc(OCC45CCCN4CCC5)nc4c3CCN(c3cccc5cccc(Cl)c35)C4)C2)n1` [Example 168, (E)-1-(3-(((7-(8-chloronaphthalen-1-yl)-2-((hexahydro-1H-pyrrolizin-7a-yl)methoxy)-5,6,7,8-tetrahydropyrido[3,4-d]pyrimidin-4-yl)(methyl)amino)methyl)azetidin-1-yl)-3-(3-ethyl-1,2,4-oxadiazol-5-yl)prop-2-en-1-one], the IC50 in assay [1] (setting [3]) and in assay [2] was 10 to 100 nM in each case.
For `CN(CC1CN(C(=O)/C=C/c2nc(C3CC3)no2)C1)c1nc(OCC23CCCN2CCC3)nc2c1CCN(c1cccc3cccc(Cl)c13)C2` [Example 172, (E)-1-(3-(((7-(8-chloronaphthalen-1-yl)-2-((hexahydro-1H-pyrrolizin-7a-yl)methoxy)-5,6,7,8-tetrahydropyrido[3,4-d]pyrimidin-4-yl)(methyl)amino)methyl)azetidin-1-yl)-3-(3-cyclopropyl-1,2,4-oxadiazol-5-yl)prop-2-en-1-one], the IC50 in assay [1] (setting [3]) and in assay [2] was 10 to 100 nM in each case.
In the case of `CN(CC1CN(C(=O)/C=C/c2nc(C3CC3)no2)C1)c1nc(OCC23CCCN2CCC3)nc2c(F)c(-c3cccc4cccc(Cl)c34)ncc12` [Example 173, (E)-1-(3-(((7-(8-chloronaphthalen-1-yl)-8-fluoro-2-((tetrahydro-1H-pyrrolizin-7a(5H)-yl)methoxy)pyrido[4,3-d]pyrimidin-4-yl)(methyl)amino)methyl)azetidin-1-yl)-3-(3-cyclopropyl-1,2,4-oxadiazol-5-yl)prop-2-en-1-one], the IC50 in assay [1] (setting [3]) and in assay [2] was 10 to 100 nM throughout.
Regarding `CN1C[C@H](O)C[C@H]1C#CC(=O)N1CC[C@@H](N(C)c2nc(OC[C@@]34CCCN3C[C@H](F)C4)nc3c(F)c(-c4cccc5cccc(Cl)c45)ncc23)C1` [Example 247, 1-((R)-3-((7-(8-chloronaphthalen-1-yl)-8-fluoro-2-(((2R,7aS)-2-fluorohexahydro-1H-pyrrolizin-7a-yl)methoxy)pyrido[4,3-d]pyrimidin-4-yl)(methyl)amino)pyrrolidin-1-yl)-3-((2S,4R)-4-hydroxy-1-methylpyrrolidin-2-yl)prop-2-yn-1-one], the IC50 in assay [1] (setting [3]) was < 10 nM; in assay [2], 10 to 100 nM.
For the compound `C#Cc1c(F)ccc2cccc(-c3ncc4c(N(C)[C@@H]5CCN(C(=O)/C=C/c6nc(C)ncc6F)C5)nc(OC[C@@]56CCCN5C[C@H](F)C6)nc4c3F)c12` [Example 301, (E)-1-((R)-3-((7-(8-ethynyl-7-fluoronaphthalen-1-yl)-8-fluoro-2-(((2R,7aS)-2-fluorohexahydro-1H-pyrrolizin-7a-yl)methoxy)pyrido[4,3-d]pyrimidin-4-yl)(methyl)amino)pyrrolidin-1-yl)-3-(5-fluoro-2-methylpyrimidin-4-yl)prop-2-en-1-one], in assay [1] (setting [3]), the IC50 was in the range of 10 to 100 nM.
Consider `C#Cc1c(F)ccc2cccc(-c3ncc4c(N(C)[C@@H]5CCN(C(=O)/C=C/c6nc(C)nc(C)c6F)C5)nc(OC[C@@]56CCCN5C[C@H](F)C6)nc4c3F)c12` [Example 302, (E)-1-((R)-3-((7-(8-ethynyl-7-fluoronaphthalen-1-yl)-8-fluoro-2-(((2R,7aS)-2-fluorotetrahydro-1H-pyrrolizin-7a(5H)-yl)methoxy)pyrido[4,3-d]pyrimidin-4-yl)(methyl)amino)pyrrolidin-1-yl)-3-(5-fluoro-2,6-dimethylpyrimidin-4-yl)prop-2-en-1-one], for which, in assay [1] (setting [3]), the IC50 fell in the range of 10 to 100 nM.
Same read-out and setting: the value for `C#Cc1c(F)ccc2cccc(-c3ncc4c(N(C)[C@@H]5CCN(C(=O)C=C)C5)nc(OCC56CCCN5CCC6)nc4c3F)c12` [Example 303, (R)-1-(3-((7-(8-ethynyl-7-fluoronaphthalen-1-yl)-8-fluoro-2-((tetrahydro-1H-pyrrolizin-7a(5H)-yl)methoxy)pyrido[4,3-d]pyrimidin-4-yl)(methyl)amino)pyrrolidin-1-yl)prop-2-en-1-one] was < 10 nM; that for `C=CC(=O)N1CC[C@@H](N(C)c2nc(OC[C@@]34CCCN3C[C@H](F)C4)nc3c(F)c(-c4cccc5cccc(C6CC6)c45)ncc23)C1` [Example 304, 1-((R)-3-((7-(8-cyclopropylnaphthalen-1-yl)-8-fluoro-2-(((2R,7aS)-2-fluorotetrahydro-1H-pyrrolizin-7a(5H)-yl)methoxy)pyrido[4,3-d]pyrimidin-4-yl)(methyl)amino)pyrrolidin-1-yl)prop-2-en-1-one] was > 500 nM; that for `C#Cc1c(F)ccc2cccc(-c3ncc4c(N(C)[C@@H]5CCN(C(=O)C=C)C5)nc(OC[C@]56CCCN5C[C@H](F)C6)nc4c3F)c12` [Example 305, 1-((R)-3-((7-(8-ethynyl-7-fluoronaphthalen-1-yl)-8-fluoro-2-(((2R,7aR)-2-fluorotetrahydro-1H-pyrrolizin-7a(5H)-yl)methoxy)pyrido[4,3-d]pyrimidin-4-yl)(methyl)amino)pyrrolidin-1-yl)prop-2-en-1-one] was 10 to 100 nM.
Same read-out and setting: the value for `C=CC(=O)N1CC[C@@H](N(C)c2nc(OC[C@@]34CCCN3C[C@H](F)C4)nc3c(F)c(-c4cccc5cccc(C#CC)c45)ncc23)C1` [Example 306, 1-((R)-3-((8-fluoro-2-(((2R,7aS)-2-fluorotetrahydro-1H-pyrrolizin-7a(5H)-yl)methoxy)-7-(8-(prop-1-yn-1-yl)naphthalen-1-yl)pyrido[4,3-d]pyrimidin-4-yl)(methyl)amino)pyrrolidin-1-yl)prop-2-en-1-one] was > 500 nM; that for `C=CC(=O)N1CC[C@@H](N(C)c2nc(OC[C@@]34CCCN3C[C@H](F)C4)nc3c(F)c(-c4cccc5cccc(C(F)F)c45)ncc23)C1` [Example 307, 1-((R)-3-((7-(8-(difluoromethyl)naphthalen-1-yl)-8-fluoro-2-(((2R,7aS)-2-fluorohexahydro-1H-pyrrolizin-7a-yl)methoxy)pyrido[4,3-d]pyrimidin-4-yl)(methyl)amino)pyrrolidin-1-yl)prop-2-en-1-one] was > 500 nM.
On to `C=CC(=O)N1C[C@H](F)[C@@H](N(C)c2nc(OC[C@@]34CCCN3C[C@H](F)C4)nc3c(F)c(-c4cccc5cccc(Cl)c45)ncc23)C1` [drawing 2208], for which the IC50 in assay [1] (additional exemplary compounds, KRAS G12C and cRAF binding, read-out: RAF1 RBD IC50) was in the range of 10 to 100 nM.

As usually defined, the IC50 is the concentration that inhibits the measured activity by half.
